According to the supplement of paper PMC4862054:

Columns and labels:
Conditions in all cases: incubation time: 72 h
HCC1937 [1] = experiment: drug sensitivity score (DSS), CellTox Green (DSS (AUC-based score)); higher = stronger drug effect (viability inhibition or cytotoxicity); extreme values may be limits of the assay
In short: (§1)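 In 384-well plates, compound was laid out at 5 concentrations in 10-fold steps over a 10,000-fold range specific to each compound, and breast cancer cell lines were seeded on top in 20 µl suspension for a 72 h incubation. CellTox Green fluorescence and then CellTiter-Glo luminescence were read, and each plate was normalised to 0.1 % DMSO and a positive kill control. The drug sensitivity score was calculated from the area under the fitted dose-response curve.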

BT-549 [2] = experiment: as above
In short: as §1

CAL-85-1 [3] = experiment: as above
In short: as §1

Hs578T [4] = experiment: as above
In short: as §1

CAL-120 [5] = experiment: as above
In short: as §1

CAL-148 [6] = experiment: as above
In short: as §1

MDA-MB-468 [7] = experiment: as above
In short: as §1

MCF-10A = experiment: as above
In short: as §1

DU-4475 [8] = experiment: as above
In short: as §1

MFM-223 = experiment: drug sensitivity score (DSS), CellTiter-Blue viability (DSS (AUC-based score)); higher = stronger viability inhibition; extreme values may be limits of the assay
In short: (§2)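 Cells from breast cancer lines were grown with compound for 72 h in 384-well plates, using a 5- or 9-concentration series. CellTiter-Blue fluorescence (560/590 nm) served as the viability readout, normalised plate by plate to 0.1 % DMSO and a positive kill control. A drug sensitivity score was computed as the area under the fitted dose-response curve.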

HCC1937 [9] = experiment: as above
In short: as §2

BT-549 [10] = experiment: as above
In short: as §2

HDQ-P1 = experiment: as above
In short: as §2

SK-BR-3 = experiment: as above
In short: as §2

CAL-85-1 [11] = experiment: as above
In short: as §2

Hs578T [12] = experiment: as above
In short: as §2

MDA-MB-231 = experiment: as above
In short: as §2

CAL-51 = experiment: as above
In short: as §2

CAL-120 [13] = experiment: as above
In short: as §2

CAL-148 [14] = experiment: as above
In short: as §2

MDA-MB-468 [15] = experiment: as above
In short: as §2

HCC1143 = experiment: as above
In short: as §2

MDA-MB-436 = experiment: as above
In short: as §2

BT-474 = experiment: as above
In short: as §2

HCC1599 = experiment: as above
In short: as §2

DU-4475 [16] = experiment: as above
In short: as §2

Compound: O=C1CCC(N2C(=O)c3ccccc3C2=O)C(=O)N1 (stereo not given) [Thalidomide]
- drug sensitivity score (HCC1937 [1]): 0
- drug sensitivity score (BT-549 [2]): 0
- drug sensitivity score (CAL-85-1 [3]): 0
- drug sensitivity score (Hs578T [4]): 0
- drug sensitivity score (CAL-120 [5]): 0
- drug sensitivity score (CAL-148 [6]): 1.58
- drug sensitivity score (MDA-MB-468 [7]): 0
- drug sensitivity score (MCF-10A): 0
- drug sensitivity score (DU-4475 [8]): 0
- drug sensitivity score (MFM-223): 0
- drug sensitivity score (HCC1937 [9]): 0
- drug sensitivity score (BT-549 [10]): 0
- drug sensitivity score (HDQ-P1): 0
- drug sensitivity score (SK-BR-3): 0
- drug sensitivity score (CAL-85-1 [11]): 0
- drug sensitivity score (Hs578T [12]): 0
- drug sensitivity score (MDA-MB-231): 0
- drug sensitivity score (CAL-51): 0
- drug sensitivity score (CAL-120 [13]): 0
- drug sensitivity score (CAL-148 [14]): 0
- drug sensitivity score (MDA-MB-468 [15]): 0
- drug sensitivity score (HCC1143): 0
- drug sensitivity score (MDA-MB-436): 0
- drug sensitivity score (BT-474): 0
- drug sensitivity score (HCC1599): 0
- drug sensitivity score (DU-4475 [16]): 0

Compound: CN[C@@H]1C[C@H]2O[C@@](C)([C@@H]1OC)n1c3ccccc3c3c4c(c5c6ccccc6n2c5c31)C(=O)N[C@H]4O [UCN-01]
- drug sensitivity score (HCC1937 [1]): 0
- drug sensitivity score (BT-549 [2]): 9.46
- drug sensitivity score (CAL-85-1 [3]): 20.2
- drug sensitivity score (Hs578T [4]): 17.7
- drug sensitivity score (CAL-120 [5]): 9.11
- drug sensitivity score (CAL-148 [6]): 3.4
- drug sensitivity score (MDA-MB-468 [7]): 0
- drug sensitivity score (MCF-10A): 21.6
- drug sensitivity score (DU-4475 [8]): 4.48
- drug sensitivity score (MFM-223): 14.7
- drug sensitivity score (HCC1937 [9]): 20
- drug sensitivity score (BT-549 [10]): 22.4
- drug sensitivity score (HDQ-P1): 19.9
- drug sensitivity score (SK-BR-3): 23
- drug sensitivity score (CAL-85-1 [11]): 17.3
- drug sensitivity score (Hs578T [12]): 29.2
- drug sensitivity score (MDA-MB-231): 24.5
- drug sensitivity score (CAL-51): 20.4
- drug sensitivity score (CAL-120 [13]): 24.2
- drug sensitivity score (CAL-148 [14]): 7
- drug sensitivity score (MDA-MB-468 [15]): 22.4
- drug sensitivity score (HCC1143): 22.2
- drug sensitivity score (MDA-MB-436): 12.4
- drug sensitivity score (BT-474): 12.2
- drug sensitivity score (HCC1599): 17
- drug sensitivity score (DU-4475 [16]): 19.5

Compound: Clc1ccc(Nc2nnc(Cc3ccncc3)c3ccccc23)cc1 [Vatalanib]
- drug sensitivity score (HCC1937 [1]): 0
- drug sensitivity score (BT-549 [2]): 0
- drug sensitivity score (CAL-85-1 [3]): 0
- drug sensitivity score (Hs578T [4]): 0
- drug sensitivity score (CAL-120 [5]): 0
- drug sensitivity score (CAL-148 [6]): 1.43
- drug sensitivity score (MDA-MB-468 [7]): 0
- drug sensitivity score (MCF-10A): 2.74
- drug sensitivity score (DU-4475 [8]): 0
- drug sensitivity score (MFM-223): 0
- drug sensitivity score (HCC1937 [9]): 0
- drug sensitivity score (BT-549 [10]): 0
- drug sensitivity score (HDQ-P1): 0
- drug sensitivity score (SK-BR-3): 0
- drug sensitivity score (CAL-85-1 [11]): 0
- drug sensitivity score (Hs578T [12]): 0
- drug sensitivity score (MDA-MB-231): 0
- drug sensitivity score (CAL-51): 0
- drug sensitivity score (CAL-120 [13]): 0
- drug sensitivity score (CAL-148 [14]): 0
- drug sensitivity score (MDA-MB-468 [15]): 0
- drug sensitivity score (HCC1143): 0
- drug sensitivity score (MDA-MB-436): 0
- drug sensitivity score (BT-474): 0
- drug sensitivity score (HCC1599): 0
- drug sensitivity score (DU-4475 [16]): 0

Compound: CCC1=C[C@@H]2CN(C1)Cc1c([nH]c3ccccc13)[C@@](C(=O)OC)(c1cc3c(cc1OC)N(C)[C@H]1[C@@](O)(C(=O)OC)[C@H](OC(C)=O)[C@]4(CC)C=CCN5CC[C@]31[C@@H]54)C2 [Vinorelbine]
- drug sensitivity score (HCC1937 [1]): 0
- drug sensitivity score (BT-549 [2]): 4.21
- drug sensitivity score (CAL-85-1 [3]): 11.7
- drug sensitivity score (Hs578T [4]): 23.3
- drug sensitivity score (CAL-120 [5]): 1.84
- drug sensitivity score (CAL-148 [6]): 9.47
- drug sensitivity score (MDA-MB-468 [7]): 5.08
- drug sensitivity score (MCF-10A): 23.7
- drug sensitivity score (DU-4475 [8]): 0
- drug sensitivity score (MFM-223): 18.4
- drug sensitivity score (HCC1937 [9]): 25.3
- drug sensitivity score (BT-549 [10]): 25.6
- drug sensitivity score (HDQ-P1): 16.5
- drug sensitivity score (SK-BR-3): 26
- drug sensitivity score (CAL-85-1 [11]): 20.9
- drug sensitivity score (Hs578T [12]): 24.6
- drug sensitivity score (MDA-MB-231): 22.8
- drug sensitivity score (CAL-51): 19.6
- drug sensitivity score (CAL-120 [13]): 24.4
- drug sensitivity score (CAL-148 [14]): 22.5
- drug sensitivity score (MDA-MB-468 [15]): 18.2
- drug sensitivity score (HCC1143): 16.8
- drug sensitivity score (MDA-MB-436): 16.5
- drug sensitivity score (BT-474): 16.1
- drug sensitivity score (HCC1599): 9.76
- drug sensitivity score (DU-4475 [16]): 15.8

Compound: Oc1nc(-c2ccc(C(F)(F)F)cc2)nc2c1CSCC2 [XAV-939]
- drug sensitivity score (HCC1937 [1]): 0
- drug sensitivity score (BT-549 [2]): 0
- drug sensitivity score (CAL-85-1 [3]): 0
- drug sensitivity score (Hs578T [4]): 3.23
- drug sensitivity score (CAL-120 [5]): 0
- drug sensitivity score (CAL-148 [6]): 0
- drug sensitivity score (MDA-MB-468 [7]): 0
- drug sensitivity score (MCF-10A): 0
- drug sensitivity score (DU-4475 [8]): 0
- drug sensitivity score (MFM-223): 0
- drug sensitivity score (HCC1937 [9]): 0
- drug sensitivity score (BT-549 [10]): 0
- drug sensitivity score (HDQ-P1): 0.887
- drug sensitivity score (SK-BR-3): 0
- drug sensitivity score (CAL-85-1 [11]): 0
- drug sensitivity score (Hs578T [12]): 0
- drug sensitivity score (MDA-MB-231): 2.73
- drug sensitivity score (CAL-51): 0
- drug sensitivity score (CAL-120 [13]): 0
- drug sensitivity score (CAL-148 [14]): 0
- drug sensitivity score (MDA-MB-468 [15]): 0
- drug sensitivity score (HCC1143): 7.23
- drug sensitivity score (MDA-MB-436): 0
- drug sensitivity score (BT-474): 0
- drug sensitivity score (HCC1599): 0
- drug sensitivity score (DU-4475 [16]): 0
